Results taken from US6632921B1, “Seryl-lysyl-based peptide and peptidomimetic inhibitors of N-myristoyl transferase as anti-infective agents” (G. D Searle & Co, priority 1995, dated 2003).
Starred links: 1 amine or outer side, 2 acyl side, 3 side chain; linkers in the order of their positions; H or OH if unused. Positions of bridges follow the written chain, without caps; N, C: chain ends. Non-standard residues stand in square brackets, D forms with d. Residues, ends and D or L forms follow the SMILES beside them. *: point of attachment. Orn(4R-OH,5R-OH) = O=C([C@H](C[C@@H](O)[C@@H](O)N[*:3])N[*:1])[*:2]; hTyr(3S-OH,4S-OH) = N[C@H](C(=O)O)[C@H](O)[C@@H](O)c1ccc(O)cc1; Pro(3S-OH,4S-Me) = C[C@H]1CN[C@H](C(=O)O)[C@H]1O; Benzoyl(4-octyloxy) = CCCCCCCCOc1ccc(C(=O)*)cc1; Hyp = O=C(O)[C@@H]1C[C@@H](O)CN1

How the values were obtained:
[1] = tested on: a variety of fungal species, including C. albicans; details: Sabouraud dextrose agar; series of n-alkoxyacetic acids; cited from earlier work
[2] = tested on: C. albicans 516; experiment: Antifungal susceptibility testing, pH 7.0/35° C., 1x10^3 cells/mL; type: cell-based, Candida albicans; details: Candida albicans, 516; pH 7.0/35° C./1x10^3 cells/mL, 48 hrs; read-out: EC50 - 48 HRS C.albicans (516)
Method: (§1) 2) Assay at pH 7.0/35° C. Incubation/(Candida Strains Only).
(§2) Based on several papers published during 1990-1993 regarding the standardization of testing procedures at multiple research centers, and the finding that, inoculum size, pH of media, and the temperature of incubation drastically affect the antifungal activity of several compounds, particularly in the Azole class of antifungals, an additional assay was configured at pH 7.0 for Candida albicans. [M. A. Pfaller et al, Antimicrobial Agents and Chemotherapy, 34, 1648-1654 (1990); F. C. Odds et al, Antimicrobial Agents and Chemotherapy, 36, 1727-1737 (1992); R. A. Cook et al, Antimicrobial Agents and Chemotherapy, 34, 1542-1545 (1990)]
(§3) The assay format is identical to the first one with the following modifications: C.albicans cells are diluted to 1×10^3 cells/ml into 2× buffered YNB (YNB buffered with 1.65 mM MOPS, pH 7.0, with the addition of 2% Dextrose and 0.08% casamino acids mixture, bio 101. inc,cat #10420-100). Incubation is carried out at 35° C. instead of 30° C., and cell growth is monitored at 590 nm at 24 and 48 hrs as described. All other aspects of the assay are identical. This assay was validated with amphotericin B, fluconazole, cilofungin (Ly-121019), Nikkomycin and terbinafine using the following Candida strains- (C.albicans, B311, C.parasilosis, C.tropicalis, C.lusitaniae, C.glabrata, and C. albicans 516)-Table II. All strains were from Dr. Kobayashi, Washington university.

[3] = tested on: C.glabrata; experiment: as above; type: cell-based; details: Nakaseomyces glabratus; pH 7.0/35° C./1x10^3 cells/mL, 48 hrs; read-out: EC50 - 48 HRS C.glab.
Method: as §1, §2, §3

[4] = tested on: C.albicans, B311; experiment: as above; type: cell-based; details: Candida albicans, B311; pH 7.0/35° C./1x10^3 cells/mL, 48 hrs; read-out: EC50 - 48 HRS C.albicans
Method: as §1, §2, §3

[5] = tested on: C.parasilosis; experiment: as above; type: cell-based; details: pH 7.0/35° C./1x10^3 cells/mL, 48 hrs; read-out: EC50 - 48 HRS C.para
Method: as §1, §2, §3

[6] = tested on: C.tropicalis; experiment: as above; type: cell-based; details: Candida tropicalis; pH 7.0/35° C./1x10^3 cells/mL, 48 hrs; read-out: EC50 - 48 HRS C.trop.
Method: as §1, §2, §3

[7] = tested on: C.lusitaniae; experiment: as above; type: cell-based; details: Clavispora lusitaniae; pH 7.0/35° C./1x10^3 cells/mL, 48 hrs; read-out: EC50 - 48 HRS C.lusi.
Method: as §1, §2, §3

SMILES	effects on the growth of fungal species [1]	EC50 [2]	EC50 [3]	EC50 [4]	EC50 [5]	EC50 [6]	EC50 [7]
CCCCCCCCOCC(=O)O [3-oxaundecanoic acid]	broadest spectrum and highest potency						
CCCCCCCCOc1ccc(C(=O)N[C@H]2C[C@@H](O)[C@@H](O)NC(=O)[C@@H]3[C@@H](O)[C@@H](C)CN3C(=O)[C@H]([C@@H](C)O)NC(=O)[C@H]([C@H](O)[C@@H](O)c3ccc(O)cc3)NC(=O)[C@@H]3C[C@@H](O)CN3C(=O)[C@H]([C@@H](C)O)NC2=O)cc1 [Ly 12109, cilofungin] ({Benzoyl(4-octyloxy)}-[Orn(4R-OH,5R-OH)]T[Hyp][hTyr(3S-OH,4S-OH)]T[Pro(3S-OH,4S-Me)]; lactam 1-C)		0.6 µM	6.1 µM	0.6 µM	32 µM	0.6 µM	6.6 µM
